Measurements reported in US20040120932A1, “In vitro-derived adult pluripotent stem cells and uses therefor” (priority 2000, published 2004).

Columns and labels:
[1] = tested on: α1-antitrypsin (“αAT”); test: Semi-quantitative RT-PCR of α1-antitrypsin (αAT) gene expression; type: cell-based, human; conditions: NUCREM cells treated with 1-2 μM retinoic acid, day five (treatment regimen 3); ±94% SEM, three experiments
Description: (§1) Subsequent to cyclin B treatment, the cultures of in vitro derived adult pluripotent stem cells were cultured in the presence of approximately 1-2 μM retinoic acid (“RA”) (Sigma, St. Louis) for five (5) to 10 days. […] By day five (5) of retinoic acid treatment, approximately 50% of the cells in culture attained a neuron-like morphology (FIG. 1). At day five of RA treatment (treatment regimen 3), RNA was extracted from the cultures for RT-PCR analysis. […]
(§2) RT-PCR was performed using the QIAGEN® OneStep RT-PCR Kit (Qiagen Inc., Valencia, Calif.) according to the manufacturer's instructions. […] To control for the quality of the extracted RNA and to serve as an internal quantification marker, human glyceraldehyde 3-phosphate dehydrogenase (“GAPDH”) oligonucleotide primers were included in the RT-PCR reaction.
(§3) The RT-PCR products were run out on a 2% agarose gel, which was then stained with ethidium bromide. The intensity of the resultant DNA bands were quantified using the PHORETIX™ TotalLab densitometry software package developed by Nonlinear USA (Durham, N.C.). […]

[2] = tested on: human telomerase (“TRT”); test: Semi-quantitative RT-PCR of telomerase (TRT) gene expression; type: cell-based; conditions: NUCREM cells subsequently treated with 1-2 μM retinoic acid, day five (treatment regimen 3)
Description: 5-aza-2′-deoxycytidine (Sigma, St. Louis) was added at a concentration of 10-25 μM to cultures of human adult keratinocytes that were approximately 40% to 80% confluent. These cultures were further incubated for approximately four (4) days at 37° C. in an atmosphere of 5-10% CO2. After four days in the presence of 5-aza-2′-deoxycytidine, trichostatin A (Sigma, St. Louis) was added to the cultures at a concentration of 100-250 ng/ml. Cultures were further incubated for approximately one (1) day, as described above. RNA was extracted from some of the aliquots of cultures at this point (treatment regimen 1) for subsequent RT-PCR analysis. Other aliquots of cultures were subsequently treated as follows. […]
as §2, §3

[3] = tested on: in vitro derived adult pluripotent stem cells (“NUCREM™ cells”); test: Retinoic acid induced differentiation of in vitro derived adult pluripotent stem cells (morphology); type: cell-based, human; conditions: approximately 1-2 μM retinoic acid, day five
Description: Subsequent to cyclin B treatment, the cultures of in vitro derived adult pluripotent stem cells were cultured in the presence of approximately 1-2 μM retinoic acid (“RA”) (Sigma, St. Louis) for five (5) to 10 days. […] By day five (5) of retinoic acid treatment, approximately 50% of the cells in culture attained a neuron-like morphology (FIG. 1). At day five of RA treatment (treatment regimen 3), RNA was extracted from the cultures for RT-PCR analysis.

[4] = tested on: cardiac actin (“cACT”); test: Semi-quantitative RT-PCR of cardiac actin (cACT) gene expression; type: cell-based, human; conditions: NUCREM cells treated with 1-2 μM retinoic acid, day five (treatment regimen 3); ±118% SEM, three experiments
Description: as §1, §2, §3

[5] = tested on: neurofilament heavy chain (“NF”); test: Semi-quantitative RT-PCR of neurofilament heavy chain (NF) gene expression; type: cell-based, human; conditions: NUCREM cells treated with 1-2 μM retinoic acid, day five (treatment regimen 3); ±45% SEM, three experiments
Description: as §1, §2, §3

Q: Which “increase in levels of expression of αAT relative to untreated keratinocytes” value [1] does the source give for `CC1=C(/C=C/C(C)=C/C=C/C(C)=C/C(=O)O)C(C)(C)CCC1` [retinoic acid] here?
A: Its value is 343%.

Q: And the “decrease in levels of expression of TRT” value [2]?
A: The value was “approximately 50%”.

Q: And the “cells in culture that attained a neuron-like morphology” value [3]?
A: The value was “approximately 50%”.

Q: What about the “increase in levels of expression of cACT relative to untreated keratinocytes” value [4] of the same compound?
A: Its value is 667%.

Q: And the “increase in levels of expression of NF relative to untreated keratinocytes” value [5]?
A: The value was 89%.
